According to patent US7655392B2, “Quenching methods for red blood cell inactivation process” (priority 2004, dated 2010):
Values joined by “and” are separate entries in the source; they are usually repeats but may differ in a detail not shown here. Equal values may be shown once. Read-outs that look alike come from different tables or passages of the source.

Tested on: red blood cells
Format: cell-based
Description: In another assay, the rabbit polyclonal sera may be reacted with treated red blood cells. After washing off unbound antibody, a FITC labeled goat anti-rabbit Fab′2 fragment (anti H+L chains, Caltag) is added. The binding of FITC label to the red blood cells correlates with the amount of acridine bound to the red blood cell surface, and is assessed by FACScan™ analysis (Becton, Dickinson and Co., NJ). The relative modification of the red blood cells is determined from the FACScan™ mean fluorescence value.
A 20 mL sample of leukoreduced whole blood (Blood Source, Sacramento, Calif.) was centrifuged at 4,100×g for 5 minutes at room temperature in each of four 50 mL centrifuge tubes. The supernatant was removed from each tube to provide red cell concentrate (RCC). […] For each washed RCC, cells were resuspended in 5 mL of the solution used for washing. This is now referred to as the RBC test sample. […] These samples were incubated for 20 hours at room temperature. After incubation, the RBC were washed in BBS (Blood Bank Saline, 0.9% saline, unbuffered, Fisher Scientific) and were diluted to a final hematocrit of 4%. A 25 μL aliquot of each was mixed with 15 μL of rabbit polyclonal anti-acridine sera diluted 1:100 in BBS and the mixture was incubated at 37° C. for 30 minutes. The cells were subsequently washed with 1.5 mL BBS. After washing was complete, the cells were mixed with 50 μL of FITC labeled goat anti-rabbit Fab′2 fragment (1:64 dilution in BBS) and incubated at 37° C. for 30 minutes. […] Note that the quenching improves as glutathione is neutralized with increasing amounts of sodium hydroxide.
The FACScan analysis of the binding of rabbit anti-acridine sera to treated red cells was used to assess a variety of quenching conditions. […] The tables represent data from two different experiments, each with samples treated under standard conditions or with 20 mM neutralized glutathione. […] The data within an experiment provides the relative efficacy of the various treatments. Because the assay may depend on the lot of red blood cells used, the absolute values of mean fluorescence may vary from one study to the next, such that relative values should only be compared within a given experiment. […] Neutralized glutathione at 20 mM results in close to background levels.
An untreated control sample as well as a standard sample (co-addition of 2 mM acidic glutathione with 0.2 mM PIC-1) were also assessed.
Full units of red cell concentrates (Interstate Blood Bank, Inc., Memphis, Tenn.) were leukoreduced. A volume of 200 mL of this RCC (80% hematocrit) was mixed with 94 mL of Erythrosol or 100 mL of Adsol (Baxter Healthcare Corp., Deerfield, Ill.) as control (unit 1). A volume of 20 mL 8% dextrose was used to dissolve PIC-1 (mg) and acid glutathione (mg) and added to one unit to provide 0.2 mM PIC-1 and 2 mM glutathione (unit 2). […] For the glutathione, 1.2 mL of 10 N NaOH was added (2 equivalents). The PIC-1 was mixed with the unit, followed 1 minute later (unit 3) or 5 minutes later (unit 4) by glutathione. For unit 5, neutralized glutathione was mixed first, followed 10 minutes later by the PIC-1. […] All units were mixed by grasping the ends of the blood bag and mixing in a FIG. 8 motion 30 times. These were then incubated at room temperature for 20 hours total. A compound adsorption device (CAD), comprising a polymeric resin contained within a mesh pouch, was used for all but the control sample. This device is intended to remove residual PIC-1, PIC-1 breakdown products, and glutathione from the samples. Samples were incubated for 8 hours, then transferred to a second blood bag containing the CAD and incubated for an additional 12 hours. Following the room temperature incubation, samples were transferred to a refrigerator (4° C.) and stored up to 43 days.

O=C(CCNc1c2ccccc2nc2ccccc12)OCCN(CCCl)CCCl [PIC-1]
mean fluorescence (16C day 14, unit 2: standard 0.2 mM PIC-1+2 mM GSH): 135.7 | mean fluorescence (16C day 14, unit 3: 0.2 mM PIC-1, 1' delay, 20 mM GSH+2 eq base): 4.09 | mean fluorescence (16C day 14, unit 4: 0.2 mM PIC-1, 5' delay, 20 mM GSH+2 eq base): 8.41 | mean fluorescence (16C day 14, unit 5: 20 mM GSH+2 eq base, 10' delay, 0.2 mM PIC-1): 3.29 | mean fluorescence (16C day 22, unit 2: standard 0.2 mM PIC-1+2 mM GSH): 90.8 | mean fluorescence (16C day 22, unit 3: 0.2 mM PIC-1, 1' delay, 20 mM GSH+2 eq base): 2.61 | mean fluorescence (16C day 22, unit 4: 0.2 mM PIC-1, 5' delay, 20 mM GSH+2 eq base): 4.46 | mean fluorescence (16C day 22, unit 5: 20 mM GSH+2 eq base, 10' delay, 0.2 mM PIC-1): 2.12 | mean fluorescence (16C day 28, unit 2: standard 0.2 mM PIC-1+2 mM GSH): 128.7 | mean fluorescence (16C day 28, unit 3: 0.2 mM PIC-1, 1' delay, 20 mM GSH+2 eq base): 2.6 | mean fluorescence (16C day 28, unit 4: 0.2 mM PIC-1, 5' delay, 20 mM GSH+2 eq base): 5.69 | mean fluorescence (16C day 28, unit 5: 20 mM GSH+2 eq base, 10' delay, 0.2 mM PIC-1): 2.83 | mean fluorescence (16C day 35, unit 2: standard 0.2 mM PIC-1+2 mM GSH): 153.4 | mean fluorescence (16C day 35, unit 3: 0.2 mM PIC-1, 1' delay, 20 mM GSH+2 eq base): 2.74 | mean fluorescence (16C day 35, unit 4: 0.2 mM PIC-1, 5' delay, 20 mM GSH+2 eq base): 6.71 | mean fluorescence (16C day 35, unit 5: 20 mM GSH+2 eq base, 10' delay, 0.2 mM PIC-1): 2.58 | mean fluorescence (16C day 43, unit 2: standard 0.2 mM PIC-1+2 mM GSH): 136.1 | mean fluorescence (16C day 43, unit 3: 0.2 mM PIC-1, 1' delay, 20 mM GSH+2 eq base): 2.43 | mean fluorescence (16C day 43, unit 4: 0.2 mM PIC-1, 5' delay, 20 mM GSH+2 eq base): 4.51 | mean fluorescence (16C day 43, unit 5: 20 mM GSH+2 eq base, 10' delay, 0.2 mM PIC-1): 2.46 | Mean fluorescence intensity (RBC CHES pH 9 3x wash, 0.2 mM PIC-1, 2 mM GSH): 12.1 | Mean fluorescence intensity (RBC CHES pH 9 3x wash, 0.2 mM PIC-1, 20 mM GSH+0.9 eq NaOH): 3.9 | Mean fluorescence intensity (RBC CHES pH 9 3x wash, 0.2 mM PIC-1, 20 mM GSH+1.5 eq NaOH): 1.9 | Mean fluorescence intensity (RBC CHES pH 9 3x wash, 0.2 mM PIC-1, 20 mM GSH+2 eq NaOH): 1.9 | Mean fluorescence intensity (RBC Erythrosol pH 7.3 3x wash, 0.2 mM PIC-1, 2 mM GSH): 199 | Mean fluorescence intensity (RBC Erythrosol pH 7.3 3x wash, 0.2 mM PIC-1, 20 mM GSH+0.9 eq NaOH): 26.7 | Mean fluorescence intensity (RBC Erythrosol pH 7.3 3x wash, 0.2 mM PIC-1, 20 mM GSH+1.5 eq NaOH): 4.9 | Mean fluorescence intensity (RBC Erythrosol pH 7.3 3x wash, 0.2 mM PIC-1, 20 mM GSH+2 eq NaOH): 3.4 | Mean fluorescence intensity (RBC PBS pH 8 3x wash, 0.2 mM PIC-1, 2 mM GSH): 25 | Mean fluorescence intensity (RBC PBS pH 8 3x wash, 0.2 mM PIC-1, 20 mM GSH+0.9 eq NaOH): 7.2 | Mean fluorescence intensity (RBC PBS pH 8 3x wash, 0.2 mM PIC-1, 20 mM GSH+1.5 eq NaOH): 5.1 | Mean fluorescence intensity (RBC PBS pH 8 3x wash, 0.2 mM PIC-1, 20 mM GSH+2 eq NaOH): 5.1 | Mean fluorescence intensity (RBC in Erythrosol pH 7.3 no wash, 0.2 mM PIC-1, 2 mM GSH): 108 | Mean fluorescence intensity (RBC in Erythrosol pH 7.3 no wash, 0.2 mM PIC-1, 20 mM GSH+0.9 eq NaOH): 17.0 | Mean fluorescence intensity (RBC in Erythrosol pH 7.3 no wash, 0.2 mM PIC-1, 20 mM GSH+1.5 eq NaOH): 8.1 | Mean fluorescence intensity (RBC in Erythrosol pH 7.3 no wash, 0.2 mM PIC-1, 20 mM GSH+2 eq NaOH): 6.0 | mean fluorescence (Table 9A: 0.2 mM PIC-1+2 mM GSH, 0 eq NaOH, no delay (standard)): 114 | mean fluorescence (Table 9A: 5 mM Cys+2 eq NaOH, then 0.2 mM PIC-1 after 5 min): 8 | mean fluorescence (Table 9A: 5 mM Cys+2 eq NaOH, then 0.2 mM PIC-1 after 10 min): 10.8 | mean fluorescence (Table 9A: 5 mM Cys+2 eq NaOH, then 0.2 mM PIC-1 after 20 min): 8 | mean fluorescence (Table 9A: 10 mM Cys+2 eq NaOH, then 0.2 mM PIC-1 after 10 min): 2.9 | mean fluorescence (Table 9A: 15 mM Cys+2 eq NaOH, then 0.2 mM PIC-1 after 10 min): 1.9 | mean fluorescence (Table 9A: 20 mM Cys+2 eq NaOH, then 0.2 mM PIC-1 after 5 min): 1.9 | mean fluorescence (Table 9A: 20 mM Cys+2 eq NaOH, then 0.2 mM PIC-1 after 10 min): 1.9 | mean fluorescence (Table 9A: 20 mM Cys+2 eq NaOH, then 0.2 mM PIC-1 after 20 min): 2 | mean fluorescence (Table 9A: 20 mM GSH+2 eq NaOH, then 0.2 mM PIC-1 after 10 min): 2.6 | mean fluorescence (Table 9A: […] Cys+2 eq NaOH, then 0.2 mM PIC-1 after 10 min): 37 | mean fluorescence (Table 9B: 0.2 mM PIC-1+2 mM GSH, 0 eq NaOH, no delay (standard)): 160 and 151 and 182 | mean fluorescence (Table 9B: 5 mM Cys+1 eq NaOH, then 0.2 mM PIC-1 after 10 min): 19.28 | mean fluorescence (Table 9B: 5 mM Cys+2 eq NaOH, then 0.2 mM PIC-1 after 10 min): 14.1 | mean fluorescence (Table 9B: 5 mM Cys, 0 eq NaOH, then 0.2 mM PIC-1 after 10 min): 49 | mean fluorescence (Table 9B: 10 mM Cys+1 eq NaOH, then 0.2 mM PIC-1 after 10 min): 5.1 | mean fluorescence (Table 9B: 10 mM Cys+2 eq NaOH, then 0.2 mM PIC-1 after 10 min): 3.6 | mean fluorescence (Table 9B: 10 mM Cys, 0 eq NaOH, then 0.2 mM PIC-1 after 10 min): 11.6 | mean fluorescence (Table 9B: 20 mM Cys+1 eq NaOH, then 0.2 mM PIC-1 after 10 min): 2.5 | mean fluorescence (Table 9B: 20 mM Cys, 0 eq NaOH, then 0.2 mM PIC-1 after 10 min): 4.3 | mean fluorescence (Table 9B: 20 mM GSH+2 eq NaOH, then 0.2 mM PIC-1 after 10 min): 6.06 and 5.62 and 5.6 | mean fluorescence (Table 9B: […] Cys+1 eq NaOH, then 0.2 mM PIC-1 after 10 min): 49.5 | mean fluorescence (Table 9B: […] Cys+2 eq NaOH, then 0.2 mM PIC-1 after 10 min): 49 | mean fluorescence (Table 9B: […] Cys, 0 eq NaOH, then 0.2 mM PIC-1 after 10 min): 44 | mean fluorescence (Table 11C: 2 mM GSH, 1 eq. base, then 0.2 mM PIC-1): 208.05 | mean fluorescence (Table 11C: 2 mM GSH, 2 eq. base, then 0.2 mM PIC-1): 160.37 | mean fluorescence (Table 11C: 2 mM GSH, no added base, then 0.2 mM PIC-1): 179.17 | mean fluorescence (Table 11C: 5 mM GSH, 1 eq. base, then 0.2 mM PIC-1): 87.6 | mean fluorescence (Table 11C: 5 mM GSH, 2 eq. base, then 0.2 mM PIC-1): 67.56 | mean fluorescence (Table 11C: 5 mM GSH, no added base, then 0.2 mM PIC-1): 95.57 | mean fluorescence (Table 11C: 10 mM GSH, 1 eq. base, then 0.2 mM PIC-1): 47.18 | mean fluorescence (Table 11C: 10 mM GSH, 2 eq. base, then 0.2 mM PIC-1): 27.45 | mean fluorescence (Table 11C: 10 mM GSH, no added base, then 0.2 mM PIC-1): 88.21 | mean fluorescence (Table 11C: 20 mM GSH, 1 eq. base, then 0.2 mM PIC-1): 29.97 | mean fluorescence (Table 11C: 20 mM GSH, 2 eq. base, then 0.2 mM PIC-1): 13.37 | mean fluorescence (Table 11C: 20 mM GSH, no added base, then 0.2 mM PIC-1): 187.74 | mean fluorescence (Table 11C: co-addition std., 2 mM acidic glutathione with 0.2 mM PIC-1): 144.33
